Data set [1] in a line: Lipophilicity, log P by microemulsion electrokinetic chromatography. In kind it is physicochemical.
Data set [2] is described as follows: Lipophilicity, log P of the compound. To be noted: octanol/water. The data set is classed as physicochemical.
The nature of data set [3]: Lipophilicity, log D at pH 7.4 by liquid chromatography. The data set is classed as physicochemical. To be noted: buffer.
The nature of data set [4]: Fraction unbound in rat brain. In kind it is ADME, tissue-based.
Data set [5] in a line: Dissociation constant, pKa by capillary electrophoresis. The data set is classed as physicochemical.
Data set [6] can be described thus: Dissociation constant, pKa by mass spectrometry. The data set is classed as physicochemical.

SMILES strings stand for the structures.

Turning to `Clc1cccc(Cl)c1N=C1NCCN1` [CLONIDINE], the logP in data set [1] (read-out: logP) was found to be 1.08; in data set [2] (read-out: logP), 1.57.
In data set [1], `OCCOCCN1CCN(C(c2ccccc2)c2ccc(Cl)cc2)CC1` (stereo not given) [HYDROXYZINE] came in with a logP of 4. The molecule further came in with a logD in data set [3] of 3.6.
`Nc1c2c(nc3ccccc13)CCCC2` [TACRINE]: the fraction unbound in data set [4] was found to be 0.124.
`Clc1ccc2c(c1)C(N1CCNCC1)=Nc1ccccc1O2` [AMOXAPINE]: the pKa turned out to be 8.71 in data set [5] and 3.38 in data set [6]. The logP in data set [1] (read-out: logP) amounted to 3.71. Further, the free fraction (fraction unbound) in data set [4] was 0.01. For the same molecule, the logD in data set [3] stood at 2.4.
With `CCCCNc1ccc(C(=O)OCCN(C)C)cc1` [TETRACAINE], the logP in data set [2] (read-out: logP) was determined as 3.46.
For the molecule `COC(=O)Nc1nc2ccc(C(=O)c3ccccc3)cc2[nH]1` [MEBENDAZOLE], the logP in data set [1] (read-out: logP) amounted to 2.26; in data set [2] (read-out: logP), 2.42.
On the same counts, the results for `C[C@]12CCC(=O)C=C1CC[C@@H]1[C@@H]2[C@@H](O)C[C@@]2(C)[C@H]1CC[C@]2(O)C(=O)CO` [HYDROCORTISONE] are 2.38 and 1.65.
Take `CSc1ccc2c(c1)N(CCC1CCCCN1C)c1ccccc1S2` (stereo not given) [THIORIDAZINE]: in data set [1], the logP is on record as 4.75. For the same molecule, the unbound share (fraction unbound) in data set [4] was found to be 0.001. Besides, in data set [3], the logD was 4.4.
With `NC12CC3CC(CC(C3)C1)C2` [AMANTADINE], the log partition coefficient (logP) in data set [1] (read-out: logP) came out at 2.82. In data set [4], this molecule returned a fraction unbound of 0.233. In data set [3], this molecule showed a logD of less than 0.
For the molecule `O=C(c1ccccc1)c1ccc2n1CCC2C(=O)O` (stereo not given) [KETOROLAC], the logP in data set [1] is 1.68; in data set [2] it was 1.26.
Regarding `CN1CCC[C@H]1c1cccnc1` [NICOTINE], the logP in data set [1] (read-out: logP) amounted to 1.22; in data set [2] (read-out: logP), 1.39.
In the same order, the values of `C[C@]12C[C@H](O)[C@H]3[C@@H](CCC4=CC(=O)CC[C@@]43C)[C@@H]1CC[C@@H]2C(=O)CO` [CORTICOSTERONE] are 2.9 and 2.2.
For the molecule `CC(C)NCC(O)COc1cccc2[nH]ccc12` (stereo not given) [PINDOLOL], the logP in data set [1] (read-out: logP) is 1.71.
Take `CN1CCN(C2=Nc3cc(Cl)ccc3Nc3ccccc32)CC1` [CLOZAPINE]: the logP worked out at 3.6 in data set [1] (read-out: logP) and 4.1 in data set [2] (read-out: logP). Also, the logD in data set [3] is 3.48.
`CN1CCN(C2=Nc3ccccc3Oc3ccc(Cl)cc32)CC1` [LOXAPINE] returned a fraction unbound in data set [4] of 0.011.
On to `COC(=O)C(c1ccccc1)C1CCCCN1` (stereo not given) [METHYLPHENIDATE], for which the logP in data set [1] (read-out: logP) worked out at 2.67. In data set [3], this molecule showed a logD of 0.4.
For the molecule `OCCN1CCN(CCCN2c3ccccc3Sc3ccc(Cl)cc32)CC1` [PERPHENAZINE], the results for the pKa in data set [5] and in data set [6] were 8.04 and 3.72, respectively. The logP in data set [1] (read-out: logP) was 3.83. Further, the fraction unbound in data set [4] was found to be 0.004. The molecule also yielded a logD in data set [3] of 4.1.
As for `Cc1nc2n(c(=O)c1CCN1CCC(c3noc4cc(F)ccc34)CC1)CCCC2` [RISPERIDONE], the logP in data set [1] (read-out: logP) came to 2.86. The molecule further returned a logD in data set [3] of 1.71.
Regarding `CCCC(C)(COC(N)=O)COC(=O)NC(C)C` (stereo not given) [CARISOPRODOL], the logP in data set [1] (read-out: logP) stood at 2.4.
As for `CN1CCN2c3ncccc3Cc3ccccc3C2C1` (stereo not given) [MIRTAZAPINE], the pKa in data set [5] was 7.79; in data set [6], 3.59. Further, the lipophilicity (logP) in data set [1] (read-out: logP) came out at 3.48. The same molecule displayed a fraction unbound in data set [4] of 0.08. Also, the logD in data set [3] was found to be 2.3.
For `CNC(=C[N+](=O)[O-])NCCSCc1ccc(CN(C)C)o1` [RANITIDINE], the logP turned out to be 1.06 in data set [1] (read-out: logP) and 1.28 in data set [2] (read-out: logP).
Molecule `CCN(CC)CCNC(=O)c1cc(Cl)c(N)cc1OC` [METOCLOPRAMIDE] had a fraction unbound in data set [4] of 0.365.
Regarding `CCCN1C[C@H](CSC)C[C@@H]2c3cccc4[nH]cc(c34)C[C@H]21` [PERGOLIDE], in data set [5], the pKa turned out to be 8.78. Further, in data set [1] (read-out: logP), the logP came to 4.22. In addition, the fraction unbound in data set [4] was 0.027. The logD in data set [3] was determined as 3.
As to `COCCc1ccc(OCC(O)CNC(C)C)cc1` (stereo not given) [METOPROLOL], the logP in data set [1] (read-out: logP) was 2.08.
With `Fc1ccc([C@@H]2CCNC[C@H]2COc2ccc3c(c2)OCO3)cc1` [PAROXETINE], the logP in data set [1] (read-out: logP) amounted to 4.07.
The molecule `CNS(=O)(=O)Cc1ccc2[nH]cc(CCN(C)C)c2c1` came in with a pKa in data set [5] of 9.68. Besides, the logP in data set [1] (read-out: logP) worked out at 1.41. Moreover, the unbound share (fraction unbound) in data set [4] came out at 0.724. Further, in data set [3], the log distribution coefficient (logD) was less than 0.
For the molecule `CNCCC=C1c2ccccc2CCc2ccccc21` [NORTRIPTYLINE], the logP in data set [1] (read-out: logP) amounted to 4.36; in data set [2] (read-out: logP), 4.39. Besides, the logD in data set [3] stood at 2.8.
As for `CN(C)CCC=C1c2ccccc2C=Cc2ccccc21` [CYCLOBENZAPRINE], in data set [1] (read-out: logP), the logP was 4.81.
`CCOC(=O)c1ncn2c1CN(C)C(=O)c1cc(F)ccc1-2` [FLUMAZENIL]: the logP came to 0.92 in data set [1] (read-out: logP) and 1.64 in data set [2] (read-out: logP).
For the molecule `Cc1cc2c(s1)Nc1ccccc1N=C2N1CCN(C)CC1` [OLANZAPINE], the figures for the pKa in data set [5] and in data set [6] were 8.5 and 4.66, respectively. The logP in data set [1] (read-out: logP) came to 3.21. In data set [4], this molecule came in with a free fraction (fraction unbound) of 0.034.
For `O=c1n(CCCN2CCN(c3cccc(Cl)c3)CC2)nc2ccccn12` [TRAZODONE], in data set [1] (read-out: logP), the logP amounted to 2.92. This molecule also registered a logD in data set [3] of 2.99.
In the case of `CC(C)n1c(/C=C/C(O)CC(O)CC(=O)O)c(-c2ccc(F)cc2)c2ccccc21` (stereo not given) [FLUVASTATIN], the logP in data set [1] (read-out: logP) is 3.92.
On to `Nc1nnc(-c2cccc(Cl)c2Cl)c(N)n1` [LAMOTRIGINE], for which, in data set [1] (read-out: logP), the logP worked out at 1.6. Besides, in data set [3], the logD is less than 0.
On to `c1ccc(-c2ccc(C(c3ccccc3)n3ccnc3)cc2)cc1` (stereo not given) [BIFONAZOLE], for which the logP in data set [1] (read-out: logP) came to 5.56.
Same read-out and setting: for `COc1ccc(Cc2nccc3cc(OC)c(OC)cc23)cc1OC` [PAPAVERINE] the value was 2.73.
With `COc1cc(NC(C)CCCN)c2ncccc2c1` (stereo not given) [PRIMAQUINE], the logP in data set [1] came out at 3.8; in data set [2] (read-out: logP) it was 3.
With `CN1CCOC(c2ccccc2)c2ccccc2C1` (stereo not given) [NEFOPAM], the logP in data set [1] (read-out: logP) turned out to be 3.2; in data set [2] (read-out: logP), 3.02.
With `O=C(CCCN1CCC(O)(c2ccc(Cl)cc2)CC1)c1ccc(F)cc1` [HALOPERIDOL], the results for the logP in data set [1] (read-out: logP) and in data set [2] (read-out: logP) were 3.53 and 3.67, respectively.
Consider `Cc1ccc(-c2nc3ccc(C)cn3c2CC(=O)N(C)C)cc1` [ZOLPIDEM], for which the logP in data set [1] (read-out: logP) came out at 2.2. Moreover, the logD in data set [3] was 2.3.
In the same order, the values of `Cc1ncc2n1-c1ccc(Cl)cc1C(c1ccccc1F)=NC2` [MIDAZOLAM] are 3.65 and 3.38.
`CCOC(=O)c1ccc(N)cc1` [BENZOCAINE]: the figures for the logP in data set [1] (read-out: logP) and in data set [2] (read-out: logP) were 1.79 and 1.89, respectively.
Regarding `COc1ccc(C(CN(C)C)C2(O)CCCCC2)cc1` (stereo not given) [VENLAFAXINE], the log partition coefficient (logP) in data set [1] (read-out: logP) was found to be 3.2. This molecule also yielded a logD in data set [3] of 1.
In turn, `CNCCCC12CCC(c3ccccc31)c1ccccc12` [MAPROTILINE] gave a pKa in data set [5] of 10.6. In addition, the logP in data set [1] (read-out: logP) stood at 4.67. Also, in data set [4], the fraction unbound is 0.006.
For `CC(NC(C)(C)C)C(=O)c1cccc(Cl)c1` (stereo not given) [BUPROPION], the logP came to 3.76 in data set [1] (read-out: logP) and 3.21 in data set [2] (read-out: logP).
Take `C=CCc1ccccc1OCC(O)CNC(C)C` (stereo not given) [ALPRENOLOL]: the logP in data set [1] (read-out: logP) is 3.57; in data set [2] (read-out: logP), 2.99.
Turning to `CN(C)CCCN1c2ccccc2Sc2ccc(Cl)cc21` [CHLORPROMAZINE], the log partition coefficient (logP) in data set [2] (read-out: logP) was 4.74.
`CCN(CC)CCOC(=O)c1ccc(N)cc1` [PROCAINE]: the logP is 2.18 in data set [1] (read-out: logP) and 2.2 in data set [2] (read-out: logP).
In data set [5], `CN(C)CCC=C1c2ccccc2COc2ccccc21` [DOXEPIN] displayed a pKa of 9.37. The lipophilicity (logP) in data set [1] (read-out: logP) stood at 4.07; in data set [2] (read-out: logP) it was 4.29. For the same molecule, the fraction unbound in data set [4] amounted to 0.025. For the same molecule, the logD in data set [3] turned out to be 2.3.
Take `NC(=O)N1c2ccccc2C=Cc2ccccc21` [CARBAMAZEPINE]: the log partition coefficient (logP) in data set [1] (read-out: logP) came to 2.29; in data set [2] (read-out: logP), 2.34.
Regarding `COc1ccc(CN(CCN(C)C)c2ccccn2)cc1` [PYRILAMINE], the lipophilicity (logP) in data set [2] (read-out: logP) was determined as 3.12.
For the molecule `CN1CCCCC1CCN1c2ccccc2Sc2ccc([S+](C)[O-])cc21` (stereo not given) [MESORIDAZINE], in data set [5], the pKa stood at 9.61. Also, in data set [1] (read-out: logP), the logP was 4.26. For the same molecule, the fraction unbound in data set [4] turned out to be 0.016. In addition, the logD in data set [3] was determined as 1.7.
For the molecule `OCCOCCN1CCN(C2=Nc3ccccc3Sc3ccccc32)CC1` [QUETIAPINE], the pKa in data set [5] worked out at 6.91; in data set [6] it was 3.64. Moreover, the logP in data set [1] (read-out: logP) was determined as 3.54. In addition, the unbound share (fraction unbound) in data set [4] is 0.025. This molecule also showed a logD in data set [3] of 3.4.
Consider `CN1C(C(=O)Nc2ccccn2)=C(O)c2ccccc2S1(=O)=O` [PIROXICAM], for which the logP in data set [1] (read-out: logP) came to 1.45; in data set [2] (read-out: logP), 1.68.

What is called logP is a log measure of how a compound divides between an organic and an aqueous phase. The logD is lipophilicity at a set pH, counting ionised and neutral species. Lower therefore signals a more hydrophilic compound. For orientation: fraction unbound means free concentration divided by total concentration. Low readings indicate little free substance, high ones much free substance. A word on the pKa: it is the pH at which an ionisable group is half protonated. A lower pKa goes with a stronger acid or weaker base.
